Test results reported in patent US11174243B2, “Succinate forms and compositions of Bruton's tyrosine kinase inhibitors” (Sunesis Pharmaceuticals, Inc., priority 2016, dated 2021).
≈ marks a conversion by molar mass, not a printed value. Like-named read-outs stand apart in the source and are kept apart here. Each block holds one compound with its values, some of them ahead of it.

What was measured:
[1] = Phase 1a single-dose study in humans, Stage 1: pharmacokinetics; assay type: in vivo, human; conditions: for Cmax / Vd/F / AUC(0-t) / Tmax / half-life: both sexes, human, plasma; for AUC(0-t): read-out: AUC0-24
Protocol: A first-in-human Phase 1a randomized, double-blind, placebo-controlled, single-dose study, was conducted in 3 stages: In Stage 1, four sequential cohorts of 8 subjects each were randomly assigned to receive progressively higher single oral administrations of Compound 2 at doses of 50, 100, 200, and 300 mg (n=6 per cohort; 3 males and 3 females) or placebo (n=2 per cohort; 1 male and 1 female).
The primary endpoint of safety was assessed by monitoring adverse events (AEs), laboratory abnormalities, and cardiac findings (ECG). Secondary endpoints included evaluation of the PK parameters of area under the plasma concentration-time curve (AUC), maximum plasma concentration (Cmax), time of maximum concentration (Tmax), apparent volume of distribution (Vd/F), terminal elimination half-life (t1/2), terminal elimination rate constant (λz), and apparent clearance (Cl/F) as well as the PD parameter of BTK inhibition in whole blood.
Compound 2 is a succinate salt. Plasma concentrations of the free base (Compound 1) were measured and used for estimation of PK parameters and elaboration of concentration/PD relationships.

[2] = tested on: CD40 expression; experiment: CpG induced CD40 expression (flow cytometry); assay type: cell-based, human; conditions: 3.2 μM CpG stimulation, 1 μM
Protocol: (§1) Methods: Primary CLL B cells were isolated from the whole blood of consented patients by FICOLL density centrifugation and rosette-sep negative selection. Annexin V and propidium iodide flow cytometry was used to measure patient CLL cell viability and 7AAD was used to measure viability in stromal co-culture. CD40 and CD86 expression was evaluated via flow cytometry subsequent to sustained 3.2 μM CpG stimulation. BCR signaling in primary CLL cells was investigated by immunoblot succeeding 1 hour treatment and following 1 hour or 24 hours of incubation with Compound 1 in XLA cell lines. MTS values were read after 24 hours of drug incubation. ITK inhibition was investigated via immunoblot after stimulation with anti-CD3 and anti-CD28 and incubation with Compound 1 for 1 hour. Compound 1 was used at a concentration of 1 μM in preclinical studies unless otherwise noted.

[3] = tested on: CD86 expression; experiment: CpG induced CD86 expression (flow cytometry); assay type: cell-based, human; conditions: 3.2 μM CpG stimulation, 1 μM
Protocol: as §1

[4] = Solubility of Compound 2 in solvent systems (slurries, HPLC); assay type: physicochemical; conditions: thermodynamic from solid, after one day at 20° C.
Protocol: Slurries were set up in the solvents reported in Table 1 by weighing approximately 200 mg of Compound 2, suspending the solid in 0.5 mL of solvent and checking that excess solid remained un-dissolved. The prepared samples were also used to calculate Compound 2 solubility in the solvent systems used.
The slurries prepared for the long term slurry experiments were sampled after one day at 20° C. to measure the solubility of Compound 2 in the solvent systems used. The solubility data were obtained by HPLC with respect to a response factor; six samples of Compound 2, dissolved in acetonitrile/methanol 40/60 at known concentration, were prepared and injected in HPLC. The resulting HPLC areas were used to calculate the HPLC response factor for Compound 2 (data not shown).

[5] = Single-dose PK in rat; assay type: in vivo, male Sprague Dawley rats; conditions: male, Sprague Dawley, plasma
Protocol: A series of single-dose PK studies were conducted in rat, dog, and monkey to investigate the plasma PK of Compound 2 following single oral and single intravenous (IV) administration of Compound 2.
The PK profile of Compound 2 was evaluated in male Sprague Dawley rats (n=3) following single IV administration of Compound 2 at 1 mg/kg and single oral administration at 5 mg/kg. Following each administration serial blood samples were collected at 0 (predose), 0.08, 0.25, 0.5, 0.75, 2, 5, 10, and 24 hours postdose.

[6] = Phase 1a study Stage 2: food effect on pharmacokinetics; assay type: in vivo, human; conditions: 200 mg oral
Protocol: In Stage 2, the effects of food on the pharmacokinetics of Compound 2 were assessed. In this stage, 12 newly enrolled subjects (6 males, 6 females; Cohort 6) were administered Compound 2 on two separate occasions, either in a fasting or fed state, with a period of ≥72 hours between the two doses. The Compound 2 dose level was 200 mg. The 12 subjects were randomized such that 6 subjects (3 males, 3 females) received Compound 2 after an overnight fast, and 6 subjects (3 males, 3 females) received Compound 2 after ingestion of a standardized, high-fat meal. Approximately 4 days later, the subjects were crossed over so that those who received Compound 2 without food in the first period then received the drug with food, while those who received Compound 2 with food in the first period then received the drug without food.
The effects of food on the pharmacokinetics of Compound 2 were assessed after oral administration of 200 mg Compound 2 to 12 subjects in the fed and fasted states. The absorption rate of Compound 2 in fed state was decreased, with Tmax delayed by 2 hours and Cmax decreased by about 30%; however, there was no impact on the extent of absorption (AUC) and elimination (T½) of Compound 2.

[7] = oral, Cohort 1 (50 mg), mean (SD)
[8] = oral, Cohort 2 (100 mg), mean (SD)
[9] = oral, Cohort 3 (200 mg), mean (SD)
[10] = oral, Cohort 4 (300 mg), mean (SD)
[11] = 1 mg/kg, IV, dose 1, SPEW, free base measured
[12] = 5 mg/kg, PO, dose 5, 0.1% CMC/0.2% Tween, free base measured

t1/2 ([1]; 50 mg (single dose), after dosing with Compound 2, mean): 8.14 h | CL/F ([1]; Cohort 1 (50 mg), mean (SD)): 6139 (1250) mL/hr | CL/F ([1]; Cohort 2 (100 mg), mean (SD)): 7162 (2900) mL/hr | CL/F ([1]; Cohort 3 (200 mg), mean (SD)): 7886 (3724) mL/hr | CL/F ([1]; Cohort 4 (300 mg), mean (SD)): 7615 (1595) mL/hr | Cmax ([1]; oral, 50 mg (single dose), after dosing with Compound 2, mean): 1910 ng/mL | Vd/F [1, 7]: 69.6 L | AUC(0-t) [1, 7]: 7830 ng·h/mL | Tmax ([1]; oral, Cohort 1 (50 mg), mean (SD), read-out: Tmax): 1.17 h | half-life ([1]; oral, Cohort 1 (50 mg), mean (SD), read-out: t1/2 (converted)): 488 min | Vd/F [1, 8]: 72.9 L | Cmax ([1]; oral, Cohort 2 (100 mg), mean (SD), N 6): 3400 ng/mL | AUC(0-t) [1, 8]: 14500 ng·h/mL | Tmax ([1]; oral, Cohort 2 (100 mg), mean (SD), read-out: Tmax): 1.25 h | half-life ([1]; oral, Cohort 2 (100 mg), mean (SD), read-out: t1/2 (converted)): 446 min | Vd/F [1, 9]: 118 L | Cmax ([1]; oral, Cohort 3 (200 mg), mean (SD), N 6): 5960 ng/mL | AUC(0-t) [1, 9]: 29900 ng·h/mL | Tmax ([1]; oral, Cohort 3 (200 mg), mean (SD), read-out: Tmax): 1 h | half-life ([1]; oral, Cohort 3 (200 mg), mean (SD), read-out: t1/2 (converted)): 629 min | Vd/F [1, 10]: 177 L | Cmax ([1]; oral, Cohort 4 (300 mg), mean (SD), N 6): 6800 ng/mL | AUC(0-t) [1, 10]: 35400 ng·h/mL | Tmax ([1]; oral, Cohort 4 (300 mg), mean (SD), read-out: Tmax): 1.5 h | half-life ([1]; oral, Cohort 4 (300 mg), mean (SD), read-out: t1/2 (converted)): 1020 min | half-life ([1]; 50-300 mg single oral dose, read-out: Mean t1/2 values across all dose cohorts): 446 to 1020 min | Cmax ([1]; Cohort 1 (50 mg Compound 2, single oral), mean (SD), N 6): 1910 ng/mL | Tmax ([1]; all dose cohorts, oral, range: 0.5-3.0, read-out: median Tmax): 1 h
Compound: NC(=O)[C@H]1CCN(c2ncnc(N)c2F)C[C@@H]1N1CCC[C@@H](Nc2cc(Cl)cc(C(F)(F)F)c2)C1=O [Compound 1, (3R,3′R,4′S)-1′-(6-amino-5-fluoropyrimidin-4-yl)-3-((3-chloro-5-(trifluoromethyl)phenyl)amino)-2-oxo-[1,3′-bipiperidine]-4′-carboxamide]
dose proportionality of total exposure (AUC and Cmax) ([1]; 50-300 mg single oral dose): increased approximately proportionally with dose | decrease of CpG induced CD40 expression [2]: 8.7% | decrease of CpG induced CD86 expression [3]: 15.7%

solubility at 1 day ([4]; organic solvent or mixture, 1,4-dioxane): 22 mg/mL (≈ 41.5 mM) | solubility at 1 day ([4]; organic solvent or mixture, 2-propanol/water 90/10): 41 mg/mL (≈ 77.4 mM) | solubility at 1 day ([4]; organic solvent or mixture, 2-propanol): 11 mg/mL (≈ 20.8 mM) | solubility at 1 day ([4]; organic solvent or mixture, Acetone): 11 mg/mL (≈ 20.8 mM) | solubility at 1 day ([4]; organic solvent or mixture, Cyclohexanone): 16 mg/mL (≈ 30.2 mM) | solubility at 1 day ([4]; organic solvent or mixture, Ethanol/water 90/10): 49 mg/mL (≈ 92.5 mM) | solubility at 1 day ([4]; organic solvent or mixture, Ethanol): 21 mg/mL (≈ 39.6 mM) | solubility at 1 day ([4]; organic solvent or mixture, Ethyl acetate): 2 mg/mL (≈ 3.77 mM) | solubility at 1 day ([4]; organic solvent or mixture, Isopropyl acetate): 1 mg/mL (≈ 1.89 mM) | solubility at 1 day ([4]; organic solvent or mixture, Methanol/water 90/10): 100 mg/mL (≈ 189 mM) | solubility at 1 day ([4]; organic solvent or mixture, Methanol): 103 mg/mL (≈ 194 mM) | solubility at 1 day ([4]; organic solvent or mixture, Tert-butylmethyl ether): 1 mg/mL (≈ 1.89 mM) | solubility at 1 day ([4]; Water): 1 mg/mL (≈ 1.89 mM) | AUC(0-inf) [5, 11]: 16100 ng·h/mL | C0 [5, 11]: 4370 ng/mL | half-life [5, 11]: 240 min | AUC(0-inf) [5, 12]: 14600 ng·h/mL | Cmax [5, 12]: 1780 ng/mL | Tmax [5, 12]: 2.6 h | bioavailability ([5]; 5 mg/kg, PO, dose 5, 0.1% CMC/0.2% Tween, read-out: % F (oral bioavailability)): 18% | apparent total body clearance and volume of distribution, fed vs fasted [6]: comparable in both food conditions | impact of food on extent of absorption (AUC) and elimination (T½) ([6]; fed vs fasted): no impact | decrease of Cmax in fed state ([6]; fed vs fasted, 12 subjects): about 30% | Tmax ([6]; both sexes, human, plasma, fed vs fasted, 12 subjects, read-out: delay of Tmax in fed state): 2 h
Compound: NC(=O)[C@H]1CCN(c2ncnc(N)c2F)C[C@@H]1N1CCC[C@@H](Nc2cc(Cl)cc(C(F)(F)F)c2)C1=O [Compound 2]
